Experiment in all cases: Kinase panel profiling at 1 µmol/L (MSA or IMAP), percentage inhibition
Holding throughout (format): biochemical

Test [1] deals with panel of 255 wild-type kinases (Homo sapiens, UniProt O96017). The note with it: CHK2 kinase assay; 1 µmol/L single concentration; read-out: %-inhibition CHK2.
The target of test [2] is panel of 255 wild-type kinases (Homo sapiens, UniProt P00519). Particulars: ABL kinase assay; 1 µmol/L single concentration; read-out: %-inhibition ABL.
Test [3] addresses panel of 255 wild-type kinases (Homo sapiens, UniProt P07947). The note with it: kinase YES; 1 µmol/L single concentration; read-out: %-inhibition at 1 µmol/L, YES.
The target of test [4] is panel of 255 wild-type kinases (Homo sapiens, UniProt P19784). The note with it: kinase CK2α2/β; 1 µmol/L single concentration; read-out: %-inhibition at 1 µmol/L, CK2α2/β.
Test [5] deals with panel of 255 wild-type kinases (Homo sapiens, UniProt P29376). The note with it: kinase LTK; 1 µmol/L single concentration; read-out: %-inhibition at 1 µmol/L, LTK.
The target of test [6] is T1, panel of 255 wild-type kinases (Homo sapiens, UniProt P42681).
T1 sequence (P42681 1-527): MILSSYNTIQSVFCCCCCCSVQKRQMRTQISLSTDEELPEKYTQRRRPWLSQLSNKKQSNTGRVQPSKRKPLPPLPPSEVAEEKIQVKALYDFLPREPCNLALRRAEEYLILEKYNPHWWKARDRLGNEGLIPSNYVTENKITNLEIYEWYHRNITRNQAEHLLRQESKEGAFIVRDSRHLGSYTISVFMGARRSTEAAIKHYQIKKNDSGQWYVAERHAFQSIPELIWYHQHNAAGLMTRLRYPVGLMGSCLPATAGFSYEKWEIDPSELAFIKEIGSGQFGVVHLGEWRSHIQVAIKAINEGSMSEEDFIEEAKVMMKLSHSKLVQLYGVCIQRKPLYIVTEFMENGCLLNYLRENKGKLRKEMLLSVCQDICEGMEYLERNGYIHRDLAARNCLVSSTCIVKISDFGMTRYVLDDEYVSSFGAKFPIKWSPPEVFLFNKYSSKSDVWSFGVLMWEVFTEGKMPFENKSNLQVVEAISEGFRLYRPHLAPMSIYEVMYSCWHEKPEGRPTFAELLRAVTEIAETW
Particulars: kinase TXK; 1 µmol/L single concentration; read-out: %-inhibition at 1 µmol/L, TXK.

The target in test [7] is panel of 255 wild-type kinases (Homo sapiens, UniProt P50613). The note with it: CDK7/CycH/MAT1 kinase assay; 1 µmol/L single concentration; read-out: %-inhibition CDK7/CycH/MAT1.
Test [8] concerns the target T2, panel of 255 wild-type kinases (Homo sapiens, UniProt Q12866).
T2 sequence (Q12866 21-999): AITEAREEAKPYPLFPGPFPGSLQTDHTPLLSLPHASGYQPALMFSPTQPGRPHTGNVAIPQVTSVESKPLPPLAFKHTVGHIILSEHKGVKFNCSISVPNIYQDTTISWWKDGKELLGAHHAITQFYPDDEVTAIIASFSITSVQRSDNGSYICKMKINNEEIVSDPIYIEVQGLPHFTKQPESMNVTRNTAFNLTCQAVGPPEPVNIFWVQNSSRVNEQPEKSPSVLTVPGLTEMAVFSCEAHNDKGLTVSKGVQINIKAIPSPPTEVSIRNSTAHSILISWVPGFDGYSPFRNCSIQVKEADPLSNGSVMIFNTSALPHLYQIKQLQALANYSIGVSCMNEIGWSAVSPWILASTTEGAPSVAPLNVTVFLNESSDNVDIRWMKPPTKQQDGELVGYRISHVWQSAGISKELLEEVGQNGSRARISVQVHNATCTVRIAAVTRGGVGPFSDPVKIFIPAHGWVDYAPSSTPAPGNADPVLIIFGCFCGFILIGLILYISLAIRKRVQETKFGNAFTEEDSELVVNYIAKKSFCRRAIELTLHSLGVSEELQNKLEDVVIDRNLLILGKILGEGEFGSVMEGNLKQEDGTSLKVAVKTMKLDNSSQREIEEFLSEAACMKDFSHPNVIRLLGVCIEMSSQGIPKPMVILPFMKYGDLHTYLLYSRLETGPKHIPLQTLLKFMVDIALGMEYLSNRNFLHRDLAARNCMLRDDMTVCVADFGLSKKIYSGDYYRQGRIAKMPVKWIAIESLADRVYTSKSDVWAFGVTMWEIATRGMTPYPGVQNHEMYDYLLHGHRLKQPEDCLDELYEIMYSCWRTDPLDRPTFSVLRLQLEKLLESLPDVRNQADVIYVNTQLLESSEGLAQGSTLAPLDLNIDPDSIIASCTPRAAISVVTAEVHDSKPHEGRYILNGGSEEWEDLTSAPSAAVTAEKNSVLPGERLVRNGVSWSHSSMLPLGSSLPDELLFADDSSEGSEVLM
The note with it: MER; 1 µmol/L single concentration; read-out: %-inhibition, MER.

The target in test [9] is panel of 255 wild-type kinases (Homo sapiens, UniProt Q13131). Particulars: AMPKα1/β1/γ1 kinase assay; 1 µmol/L single concentration; read-out: %-inhibition AMPKα1/β1/γ1.

As to `CCN1C(=O)N(c2c(F)c(OC)cc(OC)c2F)Cc2cnc3[nH]c(CN4CCOCC4)cc3c21` [pemigatinib], the inhibition at 1 µM was 3% in test [1]; 10% in test [2]; 24% in [3]; -5% in [4]; 1.66% in test [5]; -0.753% in [6]. Besides, the inhibition at 1 µM in test [7] was -12%; in test [8], 7%; in test [9], -6.52%.
Consider `FC(F)(F)c1ccc(CNc2ccc(Cc3c[nH]c4ncc(Cl)cc34)cn2)cn1` [pexidartinib], for which the inhibition at 1 µM worked out at 11% in test [1]; 0.064% in test [2]; 16% in test [3]; 0.601% in [4]; 10% in test [5]; 6.34% in test [6]. Besides, the inhibition at 1 µM in test [7] is 22%; in test [8], 54%; in test [9], -11%.
On to `CO[C@]1(C(=O)N[C@@H](C)c2ccc(-n3cc(F)cn3)nc2)CC[C@H](c2nc(C)cc(Nc3cc(C)[nH]n3)n2)CC1` [pralsetinib], for which the inhibition at 1 µM was 10% in test [1]; 37% in [2]; 95% in [3]; 4.29% in test [4]; 55% in test [5]; 41% in test [6]. Also, the inhibition at 1 µM in test [7] was 19%; in test [8], 79%; in test [9], 46%.
For `CCn1c(=O)c(-c2cc(NC(=O)Nc3ccccc3)c(F)cc2Br)cc2cnc(NC)cc21` [ripretinib], the inhibition at 1 µM in test [1] is 6%; in [2] it was 18%; in [3] it was 81%; in [4] it was -0.613%; in test [5], 0.637%; in test [6], 11%. The inhibition at 1 µM in [7] was -1.48%; in [8], -11%; in [9] it was -10%.
For `COc1ccc(CN2C3CC2CN(c2ccc(-c4cc(OCC(C)(C)O)cn5ncc(C#N)c45)cn2)C3)cn1` [selpercatinib], the inhibition at 1 µM is 80% in test [1]; 16% in test [2]; 84% in test [3]; 0.638% in [4]; -3% in test [5]; 54% in test [6]. The figures for the inhibition at 1 µM in test [7], in test [8] and in test [9] were 6%, 88% and 22%, respectively.
On to `Cn1cnc2c(F)c(Nc3ccc(Br)cc3Cl)c(C(=O)NOCCO)cc21` [selumetinib], for which the inhibition at 1 µM in test [1] is 4%; in test [2], -6.58%; in test [3] it was 14%; in [4], -2%; in test [5], 53%; in [6], 3.19%. For the same molecule, the inhibition at 1 µM in [7] is 1.7%; in test [8] it was 11%; in [9], -2.66%.
Consider `Cc1cc(Nc2ncnc3ccc(NC4=NC(C)(C)CO4)cc23)ccc1Oc1ccn2ncnc2c1` [tucatinib], for which the inhibition at 1 µM in test [1] was 4%; in [2], -3%; in test [3], 3.64%; in test [4] it was -2.25%; in test [5] it was 49%; in test [6], 5%. The inhibition at 1 µM in test [7] was 6%; in test [8] it was 12%; in test [9], -4%.

The record behind these values is publication PMC9516332 (Frontiers in Oncology, 2022).
